Data from patent US11351164B2, “Inhibitors of indoleamine 2,3-dioxygenase and methods of their use” (BRISTOL-MYERS SQUIBB COMPANY, priority 2016, dated 2022).

target: T1, indoleamine 2,3-dioxygenase (IDO) (Homo sapiens, UniProt P14902); experiment: HeLa cell-based indoleamine 2,3-dioxygenase (IDO) assay (IFNγ-induced kynurenine production, absorbance 480 nm); conditions: HeLa cells, IFNγ 25 ng/mL, 48 hour incubation
T1 construct: host or cells: HeLa cells treated with IFNγ (25 ng/mL)
Description: Assessment of inhibitor activity in HeLa cell-based indoleamine 2,3-dioxygenase (IDO) assay:
HeLa (ATCC® CCL-2) cells were obtained from the ATCC® and cultured in Dulbecco's Modified Eagle Medium supplemented with 4.5 g/L glucose, […] L-glutamine and […] (#10-013-CV, Corning), 2 mM L-alanyl-L-glutamine dipeptide (#35050-061, Gibco), 100U/mL penicillin, 100 μg/mL stroptomycin (#SV30010. HyClone) and 10% fetal bovine serum (#SH30071.03 HyClone). Cells were maintained in a humidified incubator at 37° C. in 5% CO2.
IDO activity was assessed as a function of kynurenine production as follows: HeLa cells were seeded in a 96-well culture plate at a density of 5,000 cells/well and allowed to equilibrate overnight. After 24 hours, the media was aspirated and replaced with media containing IFNγ (#285-IF/CF, R&D Systems) at a final concentration of 25 ng/mL. A serial dilution of each test compound was added to the cells in a total volume of 200 μL of culture medium. After a further 48 hour incubation, 170 μL of supernatant was transferred from each well to a fresh 96-well plate, 12.1 μL of 6.1N trichloroacetic acid (#T0699, Sigma-Aldrich) was added to each well and mixed, followed by incubation at 65° C. for 20 minutes to hydrolyze N-formylkynurenine, the product of indoleamine 2,3-dioxygenase, to kynurenine. The reaction mixture was then centrifuged for 10 mins at 500×g to sediment the precipitate. 100 μL of the supernatant was transferred from each well to a fresh 96-well plate. 100 μl of 2% (w/v) p-dimethylaminobenzaldehyde (#15647-7, Sigma-Aldrich) in acetic acid (#A6283, Sigma-Aldrich) was added to each well mixed and incubated at room temperature for 20 mins. Kynurenine concentrations were determined by measuring absorbance at 480 nm and calibrating against an L-kynurenine (#K8625, Sigma-Aldrich) standard curve using a SPECTRAMAX® M2e microplate reader (Molecular Devices). The percentage activity at each inhibitor concentration was determined and IC50 values assessed using nonlinear regression.

T1 sequence (P14902 whole entry): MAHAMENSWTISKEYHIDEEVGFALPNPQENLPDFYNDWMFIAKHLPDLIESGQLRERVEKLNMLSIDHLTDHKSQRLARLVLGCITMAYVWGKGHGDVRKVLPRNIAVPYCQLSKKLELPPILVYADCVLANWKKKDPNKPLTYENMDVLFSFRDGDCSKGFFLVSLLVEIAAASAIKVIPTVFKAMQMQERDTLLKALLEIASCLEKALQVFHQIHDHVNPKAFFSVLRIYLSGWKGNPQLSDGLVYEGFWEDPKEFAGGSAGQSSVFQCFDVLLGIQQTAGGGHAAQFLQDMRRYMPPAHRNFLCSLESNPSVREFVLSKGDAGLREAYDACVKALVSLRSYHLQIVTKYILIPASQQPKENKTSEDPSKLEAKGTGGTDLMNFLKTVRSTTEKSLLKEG

| IC50 | SMILES |
| --- | --- |
| 326 nM | CCC(Nc1nnc(-c2ccc(Cl)cc2)o1)[C@H]1CC[C@@H](c2ccnc3ccc(C(F)(F)F)cc32)CC1 (single isomer, unassigned) [Example 58-1, 5-(4-Chlorophenyl)-N-(1-((1s,4s)-4-(6-(trifluoromethyl)quinolin-4-yl)cyclohexyl)propyl)-1,3,4-oxadiazol-2-amine] |
| 7.4 nM | CCC(Nc1nnc(-c2ccc(Cl)cc2)o1)[C@H]1CC[C@@H](c2ccnc3ccc(C(F)(F)F)cc32)CC1 (single isomer, unassigned) [Example 58-2, 5-(4-Chlorophenyl)-N-(1-((1s,4s)-4-(6-(trifluoromethyl)quinolin-4-yl)cyclohexyl)propyl)-1,3,4-oxadiazol-2-amine] |
| 4.7 nM | CCC(Nc1nnc(-c2ccc(OC)cc2)o1)C1CCC(c2ccnc3ccc(C(F)(F)F)cc23)CC1 (single isomer, unassigned) [Example 59, 5-(4-methoxyphenyl)-N-(1-((1s,4s)-4-(6-(trifluoromethyl)quinolin-4-yl)cyclohexyl)propyl)-1,3,4-oxadiazol-2-amine] |
| 54.8 nM | CCC(Nc1nnc(-c2ccc(OC)cc2)o1)C1CCC(c2ccnc3ccc(C(F)(F)F)cc23)CC1 (single isomer, unassigned) [Example 60, 5-(4-methoxyphenyl)-N-(1-((1s,4s)-4-(6-(trifluoromethyl)quinolin-4-yl)cyclohexyl)propyl)-1,3,4-oxadiazol-2-amine] |
| 3.5 nM | CCC(Nc1nnc(-c2ccc(F)cc2)o1)C1CCC(c2ccnc3ccc(C(F)(F)F)cc23)CC1 (single isomer, unassigned) [Example 62, 5-(4-fluorophenyl)-N-(1-((1s,4s)-4-(6-(trifluoromethyl)quinolin-4-yl)cyclohexyl)propyl)-1,3,4-oxadiazol-2-amine] |
| 26.2 nM | CCC(Nc1nnc(-c2ccc(OC)cc2)o1)[C@H]1CC[C@@H](c2ccnc(F)c2C)CC1 (single isomer, unassigned) [Example 63-1, N-(1-((1s,4s)-4-(2-Fluoro-3-methylpyridin-4-yl)cyclohexyl)propyl)-5-(4-methoxyphenyl)-1,3,4-oxadiazol-2-amine] |
| 916 nM | CCC(Nc1nnc(-c2ccc(OC)cc2)o1)C1CCC(Oc2ccnc3ccccc23)CC1 (single isomer, unassigned) [Example 64-1] |
| 8.9 nM | CCC(Nc1nnc(-c2ccc(OC)cc2)o1)C1CCC(Oc2ccnc3ccccc23)CC1 (single isomer, unassigned) [Example 64-2] |
| 15.6 nM | COCC(Nc1nnc(-c2ccc(OC)cc2)o1)[C@H]1CC[C@@H](c2ccnc3ccc(F)cc32)CC1 (single isomer, unassigned) [Example 65-1, N-(1-((1s,4s)-4-(6-Fluoroquinolin-4-yl)cyclohexyl)-2-methoxyethyl)-5-(4-methoxyphenyl)-1,3,4-oxadiazol-2-amine] |
| 14.8 nM | C[C@@H](c1nnc(-c2ccc(Cl)cc2)[nH]1)[C@H]1CC[C@@H](c2ccnc3ccc(F)cc32)CC1 [Example 1, 4-((1s,4s)-4-((R)-1-(5-(4-Chlorophenyl)-4H-1,2,4-triazol-3-yl)ethyl)cyclohexyl)-6-fluoroquinoline] |
| 34.8 nM | C[C@@H](c1nnc(-c2ccc(F)cc2)o1)[C@H]1CC[C@@H](c2ccnc3ccc(F)cc32)CC1 [Example 2, 2-(4-Fluorophenyl)-5-((R)-1-((1s,4s)-4-(6-fluoroquinolin-4-yl)cyclohexyl)ethyl)-1,3,4-oxadiazole] |
| 21.1 nM | C[C@@H](Nc1ncc(-c2ccc(Cl)cc2)o1)[C@H]1CC[C@@H](c2ccnc3ccc(F)cc32)CC1 [Example 38, 5-(4-Chlorophenyl)-N—((R)-1-((1s,4S)-4-(6-fluoroquinolin-4-yl)cyclohexyl)ethyl)oxazol-2-amine] |
| 288 nM | C[C@@H](Nc1ncc(-c2ccc(Cl)cc2)s1)[C@H]1CC[C@@H](c2ccnc3ccc(F)cc32)CC1 [Example 39, 5-(4-Chlorophenyl)-N—((R)-1-((1s,4S)-4-(6-fluoroquinolin-4-yl)cyclohexyl)ethyl)thiazol-2-amine] |
| 20.2 nM | CCC(Nc1nnc(-c2ccc(OC)cc2)o1)[C@H]1CC[C@@H](c2ccnc3c(C(F)(F)F)cccc32)CC1 (stereo partly shown) [Example 68, 5-(4-Methoxyphenyl)-N-(1-((1s,4s)-4-(8-(trifluoromethyl)quinolin-4-yl)cyclohexyl)propyl)-1,3,4-oxadiazol-2-amine] |

target: T2, human IDO1 (Homo sapiens, UniProt P14902); experiment: IDO inhibition assay in HEK293 cells stably expressing human IDO1 (kynurenine, Ehrlich reagent, absorbance 490 nm); type: cell-based; conditions: 20 hours incubation, read-out: IDO1 HEK Human IC50
T2 construct: expressed in transfected cells
T2 sequence (P14902 whole entry): as above
Description: HEK293 cells were transfected with a pCDNA-based mammalian expression vector harboring human IDO1 cDNA (NM 002164.2) by electroporation. They were cultured in medium (DMEM with 10% FBS) containing 1 mg/ml G418 for two weeks. Clones of HEK293 cells that stably expressed human IDO1 protein were selected and expanded for IDO inhibition assay. The human IDO1/HEK293 cells were seeded at 10,000 cells per 50 μL per well with RPMI/phenol red free media contains 10% FBS in a 384-well black wall clear bottom tissue culture plate (Matrix Technologies LLC) 100 nL of certain concentration of compound was then added to each well using ECHO liquid handling systems. The cells were incubated for 20 hours in 37° C. incubator with 5% CO2. The compound treatments were stopped by adding trichloroacetic acid (Sigma-Aldrich) to a final concentration at 0.2%. The cell plate was further incubated at 50° C. for 30 minute. The equal volume supernatant ([…]) and 0.2% (w/v) Ehrlich reagent (4-dimethylaminobenzaldehyde, Sigma-Aldrich) in glacial acetic acid were mixed in a new clear bottom 384-well plate. This plate was then incubated at room temperature for 30 minute. The absorbance at 490 nm was measured on Envision plate reader. Compound IC50 values were calculated using the counts of 500 nM of a reference standard treatment as one hundred percent inhibition, and counts of no compound but DMSO treatment as zero percent inhibition.

| IC50 | SMILES |
| --- | --- |
| 6 nM | CCC(Nc1nnc(-c2ccc(OC)cc2)o1)C1CCC(c2ccnc3ccc(C(F)(F)F)cc23)CC1 (single isomer, unassigned) [Example 59, 5-(4-methoxyphenyl)-N-(1-((1s,4s)-4-(6-(trifluoromethyl)quinolin-4-yl)cyclohexyl)propyl)-1,3,4-oxadiazol-2-amine] |
| 1.7 nM | CCC(Nc1nnc(-c2ccc(F)cc2)o1)C1CCC(c2ccnc3ccc(C(F)(F)F)cc23)CC1 (single isomer, unassigned) [Example 62, 5-(4-fluorophenyl)-N-(1-((1s,4s)-4-(6-(trifluoromethyl)quinolin-4-yl)cyclohexyl)propyl)-1,3,4-oxadiazol-2-amine] |
| 47.5 nM | C[C@@H](c1nnc(-c2ccc(Cl)cc2)[nH]1)[C@H]1CC[C@@H](c2ccnc3ccc(F)cc32)CC1 [Example 1, 4-((1s,4s)-4-((R)-1-(5-(4-Chlorophenyl)-4H-1,2,4-triazol-3-yl)ethyl)cyclohexyl)-6-fluoroquinoline] |
| 39.2 nM | C[C@@H](c1nnc(-c2ccc(F)cc2)o1)[C@H]1CC[C@@H](c2ccnc3ccc(F)cc32)CC1 [Example 2, 2-(4-Fluorophenyl)-5-((R)-1-((1s,4s)-4-(6-fluoroquinolin-4-yl)cyclohexyl)ethyl)-1,3,4-oxadiazole] |
| 126 nM | C[C@@H](Nc1nnc(-c2ccc(Cl)cc2)[nH]1)[C@H]1CC[C@@H](c2ccnc3ccc(F)cc32)CC1 [Example 40, 5-(4-Chlorophenyl)-N—((R)-1-((1s,4S)-4-(6-fluoroquinolin-4-yl)cyclohexyl)ethyl)-4H-1,2,4-triazol-3-amine] |
| 57.2 nM | COc1ccc(-c2nnc(N[C@H](C)[C@H]3CC[C@@H](c4ccnc5ccc(F)cc54)CC3)[nH]2)cc1 [Example 42, N—((R)-1-((1s,4S)-4-(6-Fluoroquinolin-4-yl)cyclohexyl)ethyl)-5-(4-methoxyphenyl)-4H-1,2,4-triazol-3-amine] |
| 288 nM | C[C@@H](c1ncc(-c2ccc(Cl)cc2)o1)[C@H]1CC[C@@H](c2ccnc3ccc(F)cc32)CC1 [Example 43, 5-(4-Chlorophenyl)-2-((R)-1-((1s,4S)-4-(6-fluoroquinolin-4-yl)cyclohexyl)ethyl)oxazole] |
| 182 nM | C[C@@H](c1ncc(-c2ccc(F)cc2)o1)[C@H]1CC[C@@H](c2ccnc3ccc(F)cc32)CC1 [Example 45, 5-(4-Fluorophenyl)-2-((R)-1-((1s,4S)-4-(6-fluoroquinolin-4-yl)cyclohexyl)ethyl)oxazole] |
| 386 nM | C[C@@H](c1ncc(-c2ccc(C#N)cc2)o1)[C@H]1CC[C@@H](c2ccnc3ccc(F)cc32)CC1 [Example 46, 4-(2-((R)-1-((1s,4S)-4-(6-Fluoroquinolin-4-yl)cyclohexyl)ethyl)oxazol-5-yl)benzonitrile] |
| 18.3 nM | C[C@@H](c1ncc(-c2ccc(F)cc2)[nH]1)[C@H]1CC[C@@H](c2ccnc3ccc(F)cc32)CC1 [Example 47, 6-Fluoro-4-((1S,4s)-4-((R)-1-(5-(4-fluorophenyl)-1H-imidazol-2-yl)ethyl)cyclohexyl)quinoline] |
| 122 nM | CCC(Nc1nnc(-c2ccc(OC)cc2)o1)C1CCC(c2ccnc3ccc(F)cc23)CC1 (stereo not shown) [Example 50, N-(1-((1r,4r)-4-(6-Fluoroquinolin-4-yl)cyclohexyl)propyl)-5-(4-methoxyphenyl)-1,3,4-oxadiazol-2-amine] |
| 71.1 nM | CCC(c1nnc(-c2ccc(OC(C)C)cc2)[nH]1)C1CCC(c2ccnc3ccc(F)cc23)CC1 (stereo not shown) [Example 51, 6-Fluoro-4-(4-(1-(5-(4-isopropoxyphenyl)-4H-1,2,4-triazol-3-yl)propyl)cyclohexyl)quinoline] |
| 144 nM | CCC(c1nnc(-c2ccc(OC(C)C)cc2)[nH]1)C1CCC(c2ccnc3ccc(F)cc23)CC1 (stereo not shown) [Example 53, 6-Fluoro-4-(4-(1-(5-(4-isopropoxyphenyl)-4H-1,2,4-triazol-3-yl)propyl)cyclohexyl)quinoline] |
| 68.8 nM | CCC(c1nnc(-c2ccc(OC(C)C)cc2)o1)C1CCC(c2ccnc3ccc(F)cc23)CC1 (stereo not shown) [Example 54, 2-(1-(4-(6-Fluoroquinolin-4-yl)cyclohexyl)propyl)-5-(4-isopropoxyphenyl)-1,3,4-oxadiazole] |
